Data set [1] deals with T1, Albumin (Bos taurus, UniProt P02769). Briefly: Binding affinity to bovine serum albumin assessed as binding constant by UV-vis absorption spectral titration analysis based Benesi-Hildebrand equation analysis. Format: ADME, cell-free. Conditions: cattle; call rule not given here.
Data set [2] concerns the target Albumin (Homo sapiens, UniProt P02768). Briefly: Binding affinity to human serum albumin assessed as quenching constant by fluorescence emission spectroscopy. Format: ADME, cell-free.
Data set [3] concerns SNB-75. The data set can be described thus: Antitumor activity against human SNB-75 cells assessed as cell growth inhibition at 10 uM incubated for 48 hrs by sulforhodamine B assay. The data set is classed as functional. Conditions: read-out: GI. Background: Sulforhodamine B stains cellular protein and so reports cell mass.
Data set [4] has as its system Malme-3M. Briefly: Antitumor activity against human MALME-3M cells assessed as cell growth inhibition at 10 uM incubated for 48 hrs by sulforhodamine B assay. Format: functional. The note with it: read-out: GI.
For data set [5], the target named is T1, Albumin. The data set can be described thus: Binding affinity to bovine serum albumin assessed as increase in absorption intensity at 280 nm at 0-10 uM by UV-vis absorption spectral titration analysis. Conditions: cattle. Format: ADME, cell-free.
Data set [6] deals with HCT-15. Briefly: Antitumor activity against human HCT15 cells assessed as cell growth inhibition at 10 uM incubated for 48 hrs by sulforhodamine B assay. Format: functional. Conditions: read-out: GI.
For data set [7], the system named is NCI-H23. The data set can be described thus: Antitumor activity against human NCI-H23 cells assessed as cell growth inhibition at 10 uM incubated for 48 hrs by sulforhodamine B assay. Format: functional. The note with it: read-out: GI.
The subject of data set [8] is HL-60(TB). Briefly: Antitumor activity against human HL-60(TB) cells assessed as cell growth inhibition at 10 uM incubated for 48 hrs by sulforhodamine B assay. The data set is classed as functional. The note with it: read-out: GI.
Data set [9] deals with MOLT-4. Briefly: Antitumor activity against human MOLT4 cells assessed as cell growth inhibition at 10 uM incubated for 48 hrs by sulforhodamine B assay. Format: functional. The note with it: read-out: GI.
Data set [10] deals with LOX IMVI. The data set can be described thus: Antitumor activity against human LOX IMVI cells assessed as cell growth inhibition at 10 uM incubated for 48 hrs by sulforhodamine B assay. Format: functional. The note with it: read-out: GI.
Data set [11] has as its system MDA-MB-231. The data set can be described thus: Antitumor activity against human MDA-MB-231/ATCC cells assessed as cell growth inhibition at 10 uM incubated for 48 hrs by sulforhodamine B assay. Conditions: read-out: GI. Format: functional.
In data set [12] the test system is NCI-H460. Briefly: Antitumor activity against human NCI-H460 assessed as cell growth inhibition at 10 uM incubated for 48 hrs by sulforhodamine B assay. Conditions: read-out: GI. Format: functional.
The target of data set [13] is T1, Albumin. Briefly: Binding affinity to bovine serum albumin assessed as binding constant at 308K by fluorescence emission spectrum analysis. The data set is classed as ADME, cell-free. Conditions: cattle.
The test system of data set [14] is A549. Briefly: Cytotoxicity against human A549/ATCC assessed as reduction in cell viability after 48 hrs by MTT assay. Format: functional, cell-based. Conditions: A549, 48 h. (Tetrazolium dyes change colour on reduction, which living cells bring about.)
The test system of data set [15] is 786-0. Briefly: Antitumor activity against human 786-0 cells assessed as cell growth inhibition at 10 uM incubated for 48 hrs by sulforhodamine B assay. The data set is classed as functional. The note with it: read-out: GI.
Data set [16] has as its target T1, Albumin. Briefly: Binding affinity to bovine serum albumin assessed as Stern-Volmer quenching constant at 308K by fluorescence emission spectrum analysis. Format: ADME, cell-free. Conditions: cattle.
Data set [17] deals with HOP-92. The data set can be described thus: Antitumor activity against human HOP92 cells assessed as cell growth inhibition at 10 uM incubated for 48 hrs by sulforhodamine B assay. The data set is classed as functional. The note with it: read-out: GI.

The source of these data is ChEMBL document CHEMBL4665624, “Synthesis of 5-(4-(1H-phenanthro[9,10-d]imidazol-2-yl)benzylidene)thiazolidine-2,4-dione as promising DNA and serum albumin-binding agents and evaluation of antitumor activity” (Eur J Med Chem, 2019).

For orientation: IC50 means the concentration that inhibits the measured activity by half.

T1 sequence (P02769 whole entry): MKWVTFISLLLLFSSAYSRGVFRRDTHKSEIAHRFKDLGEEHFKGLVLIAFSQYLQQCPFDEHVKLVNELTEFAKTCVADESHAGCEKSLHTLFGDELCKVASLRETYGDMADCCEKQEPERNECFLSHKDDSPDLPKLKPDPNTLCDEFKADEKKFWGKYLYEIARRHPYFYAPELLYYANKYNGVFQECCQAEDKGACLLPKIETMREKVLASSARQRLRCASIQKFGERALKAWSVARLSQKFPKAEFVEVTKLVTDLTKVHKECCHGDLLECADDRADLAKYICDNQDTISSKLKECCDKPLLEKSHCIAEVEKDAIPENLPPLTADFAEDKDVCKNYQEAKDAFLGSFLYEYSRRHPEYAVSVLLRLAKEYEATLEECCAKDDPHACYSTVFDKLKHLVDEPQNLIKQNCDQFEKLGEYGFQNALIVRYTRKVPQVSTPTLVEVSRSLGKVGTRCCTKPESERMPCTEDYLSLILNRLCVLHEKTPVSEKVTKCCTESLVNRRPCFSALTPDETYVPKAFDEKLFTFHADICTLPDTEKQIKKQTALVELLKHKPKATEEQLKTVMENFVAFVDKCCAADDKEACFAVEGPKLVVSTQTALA
Chain of Albumin (Homo sapiens, UniProt P02768) (P02768 whole entry): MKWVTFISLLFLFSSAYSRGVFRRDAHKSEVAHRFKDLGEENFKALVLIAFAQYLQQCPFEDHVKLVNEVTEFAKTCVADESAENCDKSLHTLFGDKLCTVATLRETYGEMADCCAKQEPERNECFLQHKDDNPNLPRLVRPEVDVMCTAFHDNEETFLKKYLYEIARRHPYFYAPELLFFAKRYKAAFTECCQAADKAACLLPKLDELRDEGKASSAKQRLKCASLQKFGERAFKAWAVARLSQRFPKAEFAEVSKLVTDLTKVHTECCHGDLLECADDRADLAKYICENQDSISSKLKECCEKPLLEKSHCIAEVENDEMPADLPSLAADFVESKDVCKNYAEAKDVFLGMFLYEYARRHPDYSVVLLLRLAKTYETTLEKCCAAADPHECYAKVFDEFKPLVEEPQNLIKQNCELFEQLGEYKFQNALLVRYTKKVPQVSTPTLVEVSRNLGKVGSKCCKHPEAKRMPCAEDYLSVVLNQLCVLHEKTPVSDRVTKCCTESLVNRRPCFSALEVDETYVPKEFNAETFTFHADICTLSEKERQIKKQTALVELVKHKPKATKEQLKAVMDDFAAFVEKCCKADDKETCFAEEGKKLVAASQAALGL

With `O=C1NC(=O)/C(=C/c2ccc(-c3nc4c5ccccc5c5ccccc5c4[nH]3)cc2)S1`, the Kb is 6.57 10^4/M in [1] and 3.56 10^6/M in data set [13]. Also, the Kq in data set [2] is given as 3.01 10^14/M/s. Further, the inhibition of growth at 10 µM in data set [3] is < 10%; in [4], 14.8%; in [6], 50%; in data set [7], 29%; in [8] it was 57.7%; in data set [9], 47.1%. In addition, the inhibition of growth at 10 µM in data set [10] is 36.7%; in [11], 15.6%; in data set [12], 19.7%; in [15], 48%; in data set [17] it was 21.4%. Besides, in data set [5], the result was Active. The IC50 in data set [14] amounted to 1700 nM. The KSV in data set [16] is listed as 8.15 10^5/M.
